pKi: −log10 of the molar value.
Experiments:
EC1061 (NDM-1, CMY-6) = format: cell-based, Escherichia coli
Excerpt: (§1) Several strains simultaneously expressing both class A and class B carbapenemases, which were constructed using conjugation, were also included in the panel.

EC1065 (IMP-1 CMY-2) = format: cell-based, Escherichia coli
Excerpt: as §1

[1] = test system: EC1064 (NDM-1, CMY-6, CTX-M-15); format: cell-based, Escherichia coli
Excerpt: as §1

EC1068 (VIM-1) = format: cell-based, Escherichia coli
Excerpt: as §1

NDM-1 = NDM-1 (Klebsiella pneumoniae, UniProt C7C422); assay: biochemical; settings: substrate imipenem 100 μM
P99/AmpC of ECL = P99/AmpC of ECL (Enterobacter cloacae, UniProt P05364); assay: biochemical; settings: nitrocefin; read-out: Ki (P99/AmpC of ECL, NCF)
Method: Purified enzymes were mixed with various concentrations of inhibitors in reaction buffer and incubated for 10 min at room temperature. Nitrocefin was added and substrate cleavage profiles were recorded at 490 nm every 10 sec for 10 min.

ECLM1015 (NDM, KPC) = format: cell-based, Enterobacter cloacae
Excerpt: as §1

[2] = test system: KP1081 (NDM-1, TEM-1, SHV-11, CMY-6, CTX-M-15); format: cell-based, Klebsiella pneumoniae
Excerpt: as §1

KP1064 (KPC TEM SHV) = format: cell-based, Klebsiella pneumoniae
Excerpt: as §1

[3] = test system: KPM1347 (NDM-1 SHV CTX-M-15); format: cell-based, Klebsiella pneumoniae
Excerpt: as §1

[4] = test system: KPM1346 (NDM-1 TEM SHV CTX-M-15 CMY); format: cell-based, Klebsiella pneumoniae
Excerpt: as §1

KPM1107 (NDM, KPC) = format: cell-based, Klebsiella pneumoniae
Excerpt: as §1

KP1098 (IMP-26 TEM SHV) = format: cell-based, Klebsiella pneumoniae
Excerpt: as §1

KPM1345 (VIM-1 SHV) = format: cell-based, Klebsiella pneumoniae
Excerpt: as §1

KPM1111 (NDM, KPC) = format: cell-based, Klebsiella pneumoniae
Excerpt: as §1

KP1059 (VIM-1, SHV-11) = format: cell-based, Klebsiella pneumoniae
Excerpt: as §1

KPM1108 (NDM, KPC) = format: cell-based, Klebsiella pneumoniae
Excerpt: as §1

Sequence of NDM-1 (C7C422 29-270, looked up, species assumed): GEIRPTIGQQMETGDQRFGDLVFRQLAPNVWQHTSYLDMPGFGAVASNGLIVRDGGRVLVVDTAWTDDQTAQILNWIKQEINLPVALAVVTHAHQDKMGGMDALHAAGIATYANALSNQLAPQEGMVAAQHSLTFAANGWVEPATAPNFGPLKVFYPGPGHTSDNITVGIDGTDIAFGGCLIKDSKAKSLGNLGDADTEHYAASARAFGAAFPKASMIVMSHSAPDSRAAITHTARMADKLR
Sequence of P99/AmpC of ECL (P05364 21-381): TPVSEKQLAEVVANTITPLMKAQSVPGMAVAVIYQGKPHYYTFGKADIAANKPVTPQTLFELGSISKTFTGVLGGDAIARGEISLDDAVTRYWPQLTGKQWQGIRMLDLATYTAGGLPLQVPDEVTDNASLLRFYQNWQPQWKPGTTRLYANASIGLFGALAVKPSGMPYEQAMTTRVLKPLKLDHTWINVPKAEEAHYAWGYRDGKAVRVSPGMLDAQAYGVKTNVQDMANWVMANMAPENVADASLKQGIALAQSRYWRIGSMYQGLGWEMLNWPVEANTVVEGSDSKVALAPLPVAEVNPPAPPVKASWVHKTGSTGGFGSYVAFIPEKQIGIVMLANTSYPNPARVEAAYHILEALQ

## Nn1cnnc1S[C@H]1Cc2cccc(C(=O)O)c2OB1O [Compound 14, (R)-3-(4-amino-4H-1,2,4-triazol-3-ylthio)-2-hydroxy-3,4-dihydro-2H-benzo[e][1,2]oxaborinine-8-carboxylic acid]
EC1061 (NDM-1, CMY-6)
  Imipenem + 14 MIC: X (key: X: MIC of less than 1 μg/mL; Y: MIC of 1 μg/mL to 10 μg/mL; Z: MIC of greater than 10 μg/mL)
  Meropenem + 14 MIC: X (key: X: MIC of less than 1 μg/mL; Y: MIC of 1 μg/mL to 10 μg/mL; Z: MIC of greater than 10 μg/mL)
EC1065 (IMP-1 CMY-2)
  Imipenem + 14 MIC: X (key: X: MIC of less than 1 μg/mL; Y: MIC of 1 μg/mL to 10 μg/mL; Z: MIC of greater than 10 μg/mL)
  Meropenem + 14 MIC: X (key: X: MIC of less than 1 μg/mL; Y: MIC of 1 μg/mL to 10 μg/mL; Z: MIC of greater than 10 μg/mL)
[1]
  Imipenem + 14 MIC: X (key: X: MIC of less than 1 μg/mL; Y: MIC of 1 μg/mL to 10 μg/mL; Z: MIC of greater than 10 μg/mL)
  Meropenem + 14 MIC: Y (key: X: MIC of less than 1 μg/mL; Y: MIC of 1 μg/mL to 10 μg/mL; Z: MIC of greater than 10 μg/mL)
EC1068 (VIM-1)
  Imipenem + 14 MIC: X (key: X: MIC of less than 1 μg/mL; Y: MIC of 1 μg/mL to 10 μg/mL; Z: MIC of greater than 10 μg/mL)
  Meropenem + 14 MIC: X (key: X: MIC of less than 1 μg/mL; Y: MIC of 1 μg/mL to 10 μg/mL; Z: MIC of greater than 10 μg/mL)
NDM-1
  pKi: 7.00 to 8.00
P99/AmpC of ECL
  pKi: > 7.00
ECLM1015 (NDM, KPC)
  Imipenem + 14 MIC: X (key: X: MIC of less than 1 μg/mL; Y: MIC of 1 μg/mL to 10 μg/mL; Z: MIC of greater than 10 μg/mL)
  Meropenem + 14 MIC: X (key: X: MIC of less than 1 μg/mL; Y: MIC of 1 μg/mL to 10 μg/mL; Z: MIC of greater than 10 μg/mL)
[2]
  Imipenem + 14 MIC: X (key: X: MIC of less than 1 μg/mL; Y: MIC of 1 μg/mL to 10 μg/mL; Z: MIC of greater than 10 μg/mL)
  Meropenem + 14 MIC: X (key: X: MIC of less than 1 μg/mL; Y: MIC of 1 μg/mL to 10 μg/mL; Z: MIC of greater than 10 μg/mL)
KP1064 (KPC TEM SHV)
  Imipenem + 14 MIC: X (key: X: MIC of less than 1 μg/mL; Y: MIC of 1 μg/mL to 10 μg/mL; Z: MIC of greater than 10 μg/mL)
  Meropenem + 14 MIC: Y (key: X: MIC of less than 1 μg/mL; Y: MIC of 1 μg/mL to 10 μg/mL; Z: MIC of greater than 10 μg/mL)
[3]
  Imipenem + 14 MIC: X (key: X: MIC of less than 1 μg/mL; Y: MIC of 1 μg/mL to 10 μg/mL; Z: MIC of greater than 10 μg/mL)
  Meropenem + 14 MIC: X (key: X: MIC of less than 1 μg/mL; Y: MIC of 1 μg/mL to 10 μg/mL; Z: MIC of greater than 10 μg/mL)
[4]
  Imipenem + 14 MIC: Y (key: X: MIC of less than 1 μg/mL; Y: MIC of 1 μg/mL to 10 μg/mL; Z: MIC of greater than 10 μg/mL)
  Meropenem + 14 MIC: Z (key: X: MIC of less than 1 μg/mL; Y: MIC of 1 μg/mL to 10 μg/mL; Z: MIC of greater than 10 μg/mL)
KPM1107 (NDM, KPC)
  Imipenem + 14 MIC: X (key: X: MIC of less than 1 μg/mL; Y: MIC of 1 μg/mL to 10 μg/mL; Z: MIC of greater than 10 μg/mL)
  Meropenem + 14 MIC: X (key: X: MIC of less than 1 μg/mL; Y: MIC of 1 μg/mL to 10 μg/mL; Z: MIC of greater than 10 μg/mL)
KP1098 (IMP-26 TEM SHV)
  Imipenem + 14 MIC: Y (key: X: MIC of less than 1 μg/mL; Y: MIC of 1 μg/mL to 10 μg/mL; Z: MIC of greater than 10 μg/mL)
  Meropenem + 14 MIC: Z (key: X: MIC of less than 1 μg/mL; Y: MIC of 1 μg/mL to 10 μg/mL; Z: MIC of greater than 10 μg/mL)
KPM1345 (VIM-1 SHV)
  Imipenem + 14 MIC: X (key: X: MIC of less than 1 μg/mL; Y: MIC of 1 μg/mL to 10 μg/mL; Z: MIC of greater than 10 μg/mL)
  Meropenem + 14 MIC: X (key: X: MIC of less than 1 μg/mL; Y: MIC of 1 μg/mL to 10 μg/mL; Z: MIC of greater than 10 μg/mL)
KPM1111 (NDM, KPC)
  Imipenem + 14 MIC: X (key: X: MIC of less than 1 μg/mL; Y: MIC of 1 μg/mL to 10 μg/mL; Z: MIC of greater than 10 μg/mL)
  Meropenem + 14 MIC: X (key: X: MIC of less than 1 μg/mL; Y: MIC of 1 μg/mL to 10 μg/mL; Z: MIC of greater than 10 μg/mL)
KP1059 (VIM-1, SHV-11)
  Imipenem + 14 MIC: Y (key: X: MIC of less than 1 μg/mL; Y: MIC of 1 μg/mL to 10 μg/mL; Z: MIC of greater than 10 μg/mL)
  Meropenem + 14 MIC: Y (key: X: MIC of less than 1 μg/mL; Y: MIC of 1 μg/mL to 10 μg/mL; Z: MIC of greater than 10 μg/mL)
KPM1108 (NDM, KPC)
  Imipenem + 14 MIC: Y (key: X: MIC of less than 1 μg/mL; Y: MIC of 1 μg/mL to 10 μg/mL; Z: MIC of greater than 10 μg/mL)

From US9132140B2, “Boronic acid derivatives and therapeutic uses thereof” (Rempex Pharmaceuticals, Inc., priority 2013, dated 2015)
